T1: Peak4 (Pol III-L) (Staphylococcus aureus, UniProt P0C1P9)
T1 construct: peak 4 (last peak off Mono Q); endogenous in cells; host or cells: S. aureus strain 4220 lysate, MonoQ peak 4 (partially pure)
T1 sequence (P0C1P9 1-1435): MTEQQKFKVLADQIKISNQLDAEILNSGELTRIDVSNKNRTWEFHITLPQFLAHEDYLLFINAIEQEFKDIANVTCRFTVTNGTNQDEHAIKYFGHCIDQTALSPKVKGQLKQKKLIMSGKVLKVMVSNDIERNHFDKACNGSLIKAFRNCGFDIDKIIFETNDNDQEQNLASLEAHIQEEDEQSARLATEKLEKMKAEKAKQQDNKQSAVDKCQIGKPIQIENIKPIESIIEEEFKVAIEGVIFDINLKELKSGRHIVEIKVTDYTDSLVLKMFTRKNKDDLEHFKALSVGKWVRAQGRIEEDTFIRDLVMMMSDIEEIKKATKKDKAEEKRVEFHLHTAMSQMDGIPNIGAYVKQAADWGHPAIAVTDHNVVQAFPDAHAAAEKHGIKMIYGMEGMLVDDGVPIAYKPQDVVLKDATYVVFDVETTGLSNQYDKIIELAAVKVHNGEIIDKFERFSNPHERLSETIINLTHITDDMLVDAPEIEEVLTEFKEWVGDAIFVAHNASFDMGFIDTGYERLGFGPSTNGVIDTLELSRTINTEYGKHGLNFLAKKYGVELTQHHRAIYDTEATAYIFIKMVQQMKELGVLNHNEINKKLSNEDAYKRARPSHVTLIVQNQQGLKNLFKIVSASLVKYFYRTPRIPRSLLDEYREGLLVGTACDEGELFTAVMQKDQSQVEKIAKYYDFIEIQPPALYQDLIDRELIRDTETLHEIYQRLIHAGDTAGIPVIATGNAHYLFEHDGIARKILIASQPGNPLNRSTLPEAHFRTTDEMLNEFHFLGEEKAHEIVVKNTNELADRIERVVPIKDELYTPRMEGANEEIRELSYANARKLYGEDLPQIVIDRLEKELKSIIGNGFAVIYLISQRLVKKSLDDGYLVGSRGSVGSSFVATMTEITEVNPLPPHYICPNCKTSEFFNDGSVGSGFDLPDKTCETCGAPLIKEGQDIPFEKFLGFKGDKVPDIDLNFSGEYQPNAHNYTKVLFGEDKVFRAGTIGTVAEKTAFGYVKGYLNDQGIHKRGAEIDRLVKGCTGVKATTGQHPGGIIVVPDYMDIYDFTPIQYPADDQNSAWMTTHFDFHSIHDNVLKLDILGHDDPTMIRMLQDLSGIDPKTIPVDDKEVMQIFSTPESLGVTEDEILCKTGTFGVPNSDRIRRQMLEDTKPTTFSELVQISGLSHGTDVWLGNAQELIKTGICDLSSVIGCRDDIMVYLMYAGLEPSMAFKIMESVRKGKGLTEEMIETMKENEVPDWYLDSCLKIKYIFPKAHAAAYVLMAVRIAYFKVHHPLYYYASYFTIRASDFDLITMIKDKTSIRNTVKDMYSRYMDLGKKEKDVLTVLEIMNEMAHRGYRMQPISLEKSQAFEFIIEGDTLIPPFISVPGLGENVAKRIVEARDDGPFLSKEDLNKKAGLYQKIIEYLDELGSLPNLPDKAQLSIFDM

T2: Streptococcus pyogenes δ′ subunit (holB gene product) (Streptococcus pyogenes)
T2 construct: also called delta prime; 6′
T2 chain: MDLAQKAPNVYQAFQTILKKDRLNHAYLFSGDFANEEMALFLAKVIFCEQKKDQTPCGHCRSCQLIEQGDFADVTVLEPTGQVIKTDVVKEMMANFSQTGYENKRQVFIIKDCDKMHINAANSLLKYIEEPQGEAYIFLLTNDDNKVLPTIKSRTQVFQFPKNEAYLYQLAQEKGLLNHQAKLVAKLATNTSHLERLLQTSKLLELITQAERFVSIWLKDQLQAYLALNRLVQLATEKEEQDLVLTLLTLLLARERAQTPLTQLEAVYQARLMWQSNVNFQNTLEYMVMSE

B1: Streptococcus pyogenes δ subunit (holA gene product) (other)
chain: MIAIEKIEKLSKENLGLITLVTGDDIGQYSQLKSRLMEQIAFDKDDLAYSYFDMSEAAYQDAEMDLVSLPFFAEQKVVIFDHLLDITTNKKSFLKEKDLKAFEAYLENPLETTRLIIFAPGKLDSKRRLVKLLKRDALVLEANPLKEAELRTYFQKYSHQLGLGFESGAFDQLLLKSNDDFSQIMKNMAFLKAYKKTGNISLTDIEQAIPKSLQDNIFDLTRLVLGGKIDAARDLIHDLRLSGEDDIKLIAIMLGQFRLFLQLTILARDVKNEQQLVISLSDILGRRVNPYQVKYALKDSRTLSLAFLTGAVKTLIETDYQIKTGLYEKSYLVDIALLKIMTHSQK
notes: also called delta; putative δ
B2: Streptococcus pyogenes τ subunit (dnaX gene product) (other)
chain: MYQALYRKYRSQTFDEMVGQSVISTTLKQAVESGKISHAYLFSGPRGTGKTSAAKIFAKAMNCPNQVDGEPCNQCDICRDITNGSLEDVIEIDAASNNGVDEIRDIRDKSTYAPSRATYKVYIIDEVHMLSTGAFNALLKTLEEPTENVFILATTELHKIPATILSRVQRFEFKAIKQKAIREHLAWVLDKEGIAYEVDALNLIARRAEGGMRDALSILDQALSLSPDNQVAIAIAEEITGSISILALGDYVRYVSQEQATQALAALETIYDSGKSMSRFATDLLTYLRDLLVVKAGGDNQRQSAVFDTNLSLSIDRIFQMITVVTSHLPEIKKGTHPRIYAEMMTIQLAQKEQILSQVNLSGELISEIETLKNELAQLKQQLSQLQSRPDSLARSDKTKPKTTSYRVDRVTILKIMEETVRNSQQSRQYLDALKNAWNEILDNISAQDRALLMGSEPVLANSENAILAFEAAFNAEQVMSRNNLNDMFGNIMSKAAGFSPNILAVPRTDFQHIRKEFAQQMKSQKDSVQEEQEVALDIPEGFDFLLDKINTIDD
notes: also called tau; DnaX-protein

Columns and labels:
[1] = molecular target: Staphylococcus aureus beta subunit (dnaN gene product) (Staphylococcus aureus) (UniProt P0A022); test: cell-based or functional assay
Peak2 (Pol II) = test: DNA polymerase assay in presence or absence of pCMB, NEM, 0.15 M KCl; format: biochemical, Staphylococcus aureus; settings: S. aureus Peak2
Procedure: (§1) These assays were used in the purification of DNA polymerases from S. aureus cell extracts. Assays contained 2.5 μg activated calf thymus DNA in a final volume of 25 μl replication buffer. An aliquot of the fraction to be assayed was added to the assay mixture on ice followed by incubation at 37° C. for 5 min. DNA synthesis was quantitated using DE81 paper as described in Rowen et al., “Primase, the DnaG Protein of Escherichia coli. An Enzyme Which Starts DNA Chains,” J. Biol. Chem., 253:758-764 (1979), which is hereby incorporated by reference.
(§2) Next, it was determined which of these peaks of DNA polymerase activity correspond to DNA polymerases 1, I, and III, and which peak is the unidentified DNA polymerase. In the Gram positive bacterium B. subtilis, Pol III is inhibited by pCMB, NEM, and 0.15 M NaCl, Pol II is inhibited by KCl, but not NEM or 0.15 M KCL, and Pol I is not inhibited by any of these treatments (Gass et al., “Further Genetic and Enzymological Characterization of the Three Bacillus subtilis Deoxyribonucleic Acid Polymerases,” J. Biol. Chem., 248:7688-7700 (1973), which is hereby incorporated by reference).

Pol III-L = Pol III-L (Bacillus subtilis, UniProt P13267); settings: Pol III / Pol III-L; cited from earlier work
Peak4 (Pol III-L) = molecular target: T1, Peak4 (Pol III-L); test: DNA polymerase assay in presence or absence of pCMB, NEM, 0.15 M KCl; format: biochemical; settings: S. aureus Peak4
Procedure: as §1, §2

Pol I = Pol I (Bacillus subtilis, UniProt O34996); settings: cited from earlier work
Peak1 (new polymerase) = test: DNA polymerase assay in presence or absence of pCMB, NEM, 0.15 M KCl; format: biochemical, Staphylococcus aureus; settings: S. aureus Peak1
Procedure: (§3) These assays were used in the purification of DNA polymerases from S. aureus cell extracts. Assays contained 2.5 μg activated calf thymus DNA in a final volume of 25 μl replication buffer. An aliquot of the fraction to be assayed was added to the assay mixture on ice followed by incubation at 37° C. for 5 min.
(§4) Next, it was determined which of these peaks of DNA polymerase activity correspond to DNA polymerases 1, I, and III, and which peak is the unidentified DNA polymerase. In the Gram positive bacterium B. subtilis, Pol III is inhibited by pCMB, NEM, and 0.15 M NaCl, Pol II is inhibited by KCl, but not NEM or 0.15 M KCL, and Pol I is not inhibited by any of these treatments (Gass et al., “Further Genetic and Enzymological Characterization of the Three Bacillus subtilis Deoxyribonucleic Acid Polymerases,” J. Biol. Chem., 248:7688-7700 (1973), which is hereby incorporated by reference). […] Peak 3 clearly corresponded to Pol I, because it was not inhibited by NEM, pCMB, or 0.15 M NaCl. Peak 2 correspond to Pol II, because it was not inhibited by NEM, but was inhibited by pCMB and 0.15 M NaCl. Peaks 1 and 4 both had characteristics that mimic Pol III; however, peak 4 elutes on MonoQ at a similar position as Pol III-L expressed in E. coli (see FIG. 2B).

Peak3 (Pol I) = test: as above; format: biochemical, Staphylococcus aureus; settings: S. aureus Peak3
Procedure: as §3, §4

Pol II = settings: cited from earlier work
[2] = molecular target: T2, Streptococcus pyogenes δ′ subunit (holB …); test: gel filtration on Superose 6 of an α-large, τ, δ, δ′ mixture, SDS-PAGE of fractions
[3] = molecular target: T2, Streptococcus pyogenes δ′ subunit (holB …); test: gel filtration on Superose 6 in buffer A with 100 mM NaCl, SDS-PAGE of fractions
[4] = molecular target: B1; test: as above

Pol I, sequence (O34996 whole entry): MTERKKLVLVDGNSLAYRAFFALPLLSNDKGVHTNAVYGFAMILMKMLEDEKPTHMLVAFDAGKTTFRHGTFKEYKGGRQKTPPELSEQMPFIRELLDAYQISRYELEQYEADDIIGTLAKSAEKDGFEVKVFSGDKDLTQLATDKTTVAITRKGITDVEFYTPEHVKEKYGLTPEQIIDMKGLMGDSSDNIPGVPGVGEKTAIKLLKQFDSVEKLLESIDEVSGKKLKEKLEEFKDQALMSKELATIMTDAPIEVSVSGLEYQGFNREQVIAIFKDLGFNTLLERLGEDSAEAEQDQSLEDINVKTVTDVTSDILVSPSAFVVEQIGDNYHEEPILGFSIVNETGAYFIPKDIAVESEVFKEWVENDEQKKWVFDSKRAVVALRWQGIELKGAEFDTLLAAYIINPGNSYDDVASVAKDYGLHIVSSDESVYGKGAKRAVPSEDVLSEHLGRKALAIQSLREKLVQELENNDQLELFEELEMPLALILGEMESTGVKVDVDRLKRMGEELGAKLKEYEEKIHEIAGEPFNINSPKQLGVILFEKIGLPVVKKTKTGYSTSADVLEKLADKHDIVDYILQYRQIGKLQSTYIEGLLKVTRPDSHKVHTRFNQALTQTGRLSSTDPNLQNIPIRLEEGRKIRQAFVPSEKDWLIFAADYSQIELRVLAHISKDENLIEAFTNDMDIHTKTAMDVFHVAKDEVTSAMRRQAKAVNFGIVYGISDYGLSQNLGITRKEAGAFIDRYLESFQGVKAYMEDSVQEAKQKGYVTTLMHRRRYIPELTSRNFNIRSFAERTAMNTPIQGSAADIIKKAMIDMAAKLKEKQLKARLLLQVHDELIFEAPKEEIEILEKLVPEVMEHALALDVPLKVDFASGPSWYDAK
Pol III-L, sequence (P13267 whole entry): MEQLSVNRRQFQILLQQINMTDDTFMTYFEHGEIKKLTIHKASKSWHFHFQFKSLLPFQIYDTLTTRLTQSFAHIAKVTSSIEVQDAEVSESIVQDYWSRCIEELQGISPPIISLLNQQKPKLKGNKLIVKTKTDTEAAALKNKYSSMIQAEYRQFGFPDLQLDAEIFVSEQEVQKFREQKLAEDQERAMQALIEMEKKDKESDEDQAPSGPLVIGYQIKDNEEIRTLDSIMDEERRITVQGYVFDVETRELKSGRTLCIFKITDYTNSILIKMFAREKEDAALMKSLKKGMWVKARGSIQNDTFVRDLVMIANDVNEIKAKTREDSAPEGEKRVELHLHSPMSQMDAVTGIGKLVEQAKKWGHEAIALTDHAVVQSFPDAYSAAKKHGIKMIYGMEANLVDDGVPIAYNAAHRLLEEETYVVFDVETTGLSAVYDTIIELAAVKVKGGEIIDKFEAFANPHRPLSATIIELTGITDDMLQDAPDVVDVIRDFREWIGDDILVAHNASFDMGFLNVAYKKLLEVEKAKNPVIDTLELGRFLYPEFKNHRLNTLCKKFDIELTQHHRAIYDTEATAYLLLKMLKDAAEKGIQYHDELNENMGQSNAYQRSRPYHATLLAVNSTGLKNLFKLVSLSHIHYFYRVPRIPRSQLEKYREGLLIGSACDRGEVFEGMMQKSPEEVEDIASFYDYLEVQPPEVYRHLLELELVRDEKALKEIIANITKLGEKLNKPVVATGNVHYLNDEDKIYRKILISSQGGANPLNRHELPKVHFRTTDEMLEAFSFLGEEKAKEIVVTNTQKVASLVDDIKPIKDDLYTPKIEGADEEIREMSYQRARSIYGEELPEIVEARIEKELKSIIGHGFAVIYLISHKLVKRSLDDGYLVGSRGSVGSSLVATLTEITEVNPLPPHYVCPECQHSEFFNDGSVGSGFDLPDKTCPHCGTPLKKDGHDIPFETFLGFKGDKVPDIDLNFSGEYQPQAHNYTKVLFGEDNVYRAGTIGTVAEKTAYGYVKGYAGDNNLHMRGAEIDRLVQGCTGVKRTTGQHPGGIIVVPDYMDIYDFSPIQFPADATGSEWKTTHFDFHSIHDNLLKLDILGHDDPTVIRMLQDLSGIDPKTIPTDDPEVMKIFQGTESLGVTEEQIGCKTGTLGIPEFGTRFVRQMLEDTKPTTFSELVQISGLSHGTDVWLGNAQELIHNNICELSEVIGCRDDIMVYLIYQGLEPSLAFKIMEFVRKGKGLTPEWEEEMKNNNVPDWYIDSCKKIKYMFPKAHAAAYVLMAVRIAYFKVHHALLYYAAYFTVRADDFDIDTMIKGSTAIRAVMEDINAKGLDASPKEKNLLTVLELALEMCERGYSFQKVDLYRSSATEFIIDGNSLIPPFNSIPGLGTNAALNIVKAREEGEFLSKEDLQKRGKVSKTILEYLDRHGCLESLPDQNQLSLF

Molecule	Observed characteristics: inhibition of polymerase activity (Peak2 (Pol II))	Expected characteristics: inhibition of polymerase activity (Pol III-L)	Observed characteristics: inhibition of polymerase activity (Peak4 (Pol III-L))	Expected characteristics: inhibition of polymerase activity (Pol I)	Observed characteristics: inhibition of polymerase activity (Peak1 (new polymerase))	Observed characteristics: inhibition of polymerase activity (Peak3 (Pol I))	Expected characteristics: inhibition of polymerase activity (Pol II)	further results
Escherichia coli clamp loader complex (gamma complex: gamma, delta, delta prime, chi, psi) (from UniProt P06710 2-431; P28630 1-343; P28631 1-334; P28905 1-147; P28632 1-137)	–	–	–	–	–	–	–	Total DNA synthesis on circular singly primed M13mp18 ssDNA, lane 3 (Pol III-L, S. aureus beta and E. coli clamp loader complex; lane 1 Pol III-L alone 0.6 pmol) [1]: 0.99 pmol
O=C(O)c1cc[c]([Hg][Cl])cc1 [pCMB]	inhibited (Inhibited is defined as less than 40% remaining activity)	inhibited (Inhibited is defined as less than 40% remaining activity)	inhibited (Inhibited is defined as less than 40% remaining activity)	not inhibited* (Not inhibited is defined as greater than 75% remaining activity)	inhibited (Inhibited is defined as less than 40% remaining activity)	not inhibited (Not inhibited is defined as greater than 75% remaining activity)	inhibited** (Inhibited is defined as less than 40% remaining activity)	–
CCN1C(=O)C=CC1=O [NEM]	not inhibited (Not inhibited is defined as greater than 75% remaining activity)	inhibited (Inhibited is defined as less than 40% remaining activity)	inhibited (Inhibited is defined as less than 40% remaining activity)	not inhibited (Not inhibited is defined as greater than 75% remaining activity)	inhibited (Inhibited is defined as less than 40% remaining activity)	not inhibited (Not inhibited is defined as greater than 75% remaining activity)	not inhibited (Not inhibited is defined as greater than 75% remaining activity)	–
B1	–	–	–	–	–	–	–	binding result [2]: binds
B2	–	–	–	–	–	–	–	binding result [3]: no binding (tested: δ′ (200 µg) in 100 µl); binding result [4]: no binding (tested: δ (200 µg) in 100 µl)

Source: patent US7432365B1, “DNA molecules encoding beta clamp proteins of gram positive bacteria” (priority 1998, dated 2008)
